The record followed here is paper PMC11354392, “Molecular Characteristics of the Malate Dehydrogenase (MDH) Gene Family in Spirometra mansoni (Cestoda: Diphyllobothriidea)” (International Journal of Molecular Sciences, 2024).

Experiment [1] concerns T1, rSmMDH1.
T1 construct: gene SmMDH1
Kind of experiment: absorbance […] nm, Lineweaver-Burk. Type of experiment: biochemical, Spirometra mansoni. The note with it: apparent.

Experiment [2] deals with T1, rSmMDH1. Kind of experiment: absorbance […] nm, Lineweaver-Burk secondary plot of […]/Vmax. The conditions noted are these: forward reaction (oxaloacetate reduction, NADH); 100 mM Tris-HCl pH 7.5, 37 °C; reversible, binds enzyme-substrate complex. It is filed as biochemical, Spirometra mansoni.

In the case of `O=C(O)C[C@H](O)C(=O)O` [malic acid], the Km with rSmMDH1 [1] (reverse reaction, NAD co-substrate, 100 mM Tris-HCl pH 8.6, 37 °C) is 1190 µM.
Turning to `O=C(O)CC(=O)C(=O)O` [oxaloacetic acid], the Km in the experiment on rSmMDH1 [1] (forward reaction, NADH co-substrate, 100 mM Tris-HCl pH 7.5, 37 °C, tested 1-10 mM) turned out to be 63500 µM.
In the case of `NC(=O)c1ccc[n+]([C@@H]2O[C@H](COP(=O)(O)OP(=O)(O)OC[C@H]3O[C@@H](n4cnc5c(N)ncnc54)[C@H](O)[C@@H]3O)[C@@H](O)[C@H]2O)c1` [NAD], the Km with rSmMDH1 [1] (reverse reaction, malic acid co-substrate (methods print lactate), 100 mM Tris-HCl pH 8.6, 37 °C) came out at 1950 µM.
Consider `NC(=O)C1=CN([C@@H]2O[C@H](COP(=O)(O)OP(=O)(O)OC[C@H]3O[C@@H](n4cnc5c(N)ncnc54)[C@H](O)[C@@H]3O)[C@@H](O)[C@H]2O)C=CC1` [NADH], for which the Km in the experiment with rSmMDH1 [1] (forward reaction, oxaloacetate co-substrate, 100 mM Tris-HCl pH 7.5, 37 °C) was found to be 1750 µM.
`NC(=S)c1cccnc1` [thionicotinamide] showed a Ki at rSmMDH1 [2] of 144 µM.

One may read the Km as the concentration of substrate that gives half-maximal velocity. Usually Ki stands for a measure of affinity in units of concentration, obtained from inhibition or displacement.
